Experimental data published in article PMC8391236, “Effect of Pterostilbene, a Natural Derivative of Resveratrol, in the Treatment of Colorectal Cancer through Top1/Tdp1-Mediated DNA Repair Pathway” (Cancers, 2021).

Assays:
Assay type in all cases: cell-based, Human
LoVo = assay: Cell viability assay (CCK-8)
Method: (§1) PTE or RE were dissolved in DMSO and diluted with culture medium to 1–100 μM. The final concentration of DMSO was less than 0.1%, and 0.1% DMSO as negative control. CPT, as Top1 inhibitor, was diluted to 0.5 μM [36, 37], and FM, as Tdp1 inhibitor was diluted to 25 μM [38]. Exponentially growing cells were seeded in 96-well plates (5 × 10^3 cells/well) for 12 h. Various drugs were added separately and incubated for 24, 48, and 72 h. Cell viability was determined by CCK-8 (Beyotime Biotechnology, Shanghai, China) assay. […]
(§2) The drug concentration required for inhibiting cell proliferation by 50% (IC50) was determined by interpolation from dose-response curves.

HCT-116 = assay: Cell viability assay (CCK-8)
Method: as §1, §2

CL187 = assay: Cell viability assay (CCK-8)
Method: as §1, §2

HCT-8 = assay: Cell viability assay (CCK-8)
Method: as §1, §2

COLO205 = assay: Cell viability assay (CCK-8)
Method: as §1, §2

Top1 mRNA = assay: qPCR of Top1 mRNA in cells; conditions: 6 h
Method: CL187 cells were treated with different concentrations of RE and PTE for 6, 12, 24 h, collected, and added with TRIzol (Thermo Fisher Scientific, Waltham, MA, USA). RNA was precipitated by isopropyl alcohol and washed with 75% ethanol prepared from diethylpyrocarbonate (DEPC) water. The obtained total RNA was dissolved in DEPC water and reverse transcribed into cDNA by a Hifair Ⅲ 1st strand cDNA Synthesis SuperMix for qPCR Kit (Yeasen Biotech, Shanghai, China). The resultant cDNA was used as a template, and the primer sequences were (5′→3′): Top1: F: […], R: […]; Tdp1: F: ACCAGAGTTCAGGAAGAAG, R: TCATAGAGCAGCAGCATC. GAPDH: F: […], R: TCTTCCTCTTGTGCTCTTG. Transcription levels of Top1, Tdp1, and GAPDH genes were determined by qPCR. The qPCR was performed as follows: 95 °C for 10 min, 40 cycles of 95 °C for 10 s, and 60 °C for 30 s. The cycle threshold (Ct) value was determined, and the RQ value was calculated.

siRNA-Tdp1 CL187 cells = assay: Cell viability of Tdp1-silenced cells
Method: PTE or RE were dissolved in DMSO and diluted with culture medium to 1–100 μM. The final concentration of DMSO was less than 0.1%, and 0.1% DMSO as negative control. […] Exponentially growing cells were seeded in 96-well plates (5 × 10^3 cells/well) for 12 h. Various drugs were added separately and incubated for 24, 48, and 72 h. Cell viability was determined by CCK-8 (Beyotime Biotechnology, Shanghai, China) assay.

Top1 in CL187 cells = assay: Intracellular Top1 enzyme activity assay; conditions: CL187 cells treated 6 h
Method: CL187 cells were treated with different concentrations of drugs for 6 h. The supernatant was discarded, and the cells were collected. The extracts of cytoplasm, mitochondria, and nucleus were obtained by the same method as described in Section 2.4.7. The protein concentration of each extract was detected by BCA kit. Enzyme activity reaction was carried out by using 125 ng super helical DNA (pHOT-1) and cell extract. The protein concentration of the extract was guaranteed to be the same in each group. The mixture solution of the pHOT-1 and the cell extract was added into the reaction buffer and incubated for 30 min at 37 °C. The reaction was terminated with loading buffer. The agarose gel electrophoresis was performed, and the images were collected.

Tdp1 = assay: Western blot of Tdp1 protein in cells; conditions: 6 h
Method: CL187 cells were treated with RE or PTE for 6 or 12 h, collected, and placed into lysis buffer (KeyGEN BioTECH, Nanjing, China). The total protein content in the cell lysates was measured using a BCA kit. Equivalent amount of total protein (30 μg) was loaded onto 10% SDS-PAGE gel. Electrophoresis was performed at 80 V for 25 min. After the sample went through concentrated gel, the voltage was adjusted to 120 V. Electrophoresis was stopped when the bromophenol blue band approached the bottom of the gel. After being transferred to PVDF membranes, the samples were incubated separately with 3 types of primary antibodies Top1, Tdp1, and P53 rabbit mAb (CST, Boston, MA, USA), followed by the incubation with secondary antibody goat anti-rabbit IgG (HRP)-conjugated (1:3000). ECL kit (New Cell and Molecular Biotech, Suzhou, China) was used for color development, and the images were collected by the gel imaging system (Tanon-5200, Shanghai, China).

IC50 (LoVo; 72 h): < 30 µM
IC50 (LoVo; 72 h, listed as Pterostilbene): 12 ± 4.01 µM
IC50 (LoVo; Homo sapiens, 24 h): 106 ± 28.6 µM
IC50 (LoVo; Homo sapiens, 48 h): 14.2 ± 4.84 µM
IC50 (HCT-116; HCT-116, 72 h, listed as Pterostilbene): 21.4 ± 6.79 µM
IC50 (HCT-116; Homo sapiens, HCT-116, 24 h): 31.2 ± 10.2 µM
IC50 (HCT-116; Homo sapiens, HCT-116, 48 h): 15.4 ± 4.49 µM
IC50 (HCT-116; Homo sapiens, HCT-116, 72 h): < 30 µM
IC50 (HCT-8; HCT-8, 72 h, listed as Pterostilbene): 25 ± 6.62 µM
IC50 (HCT-8; Homo sapiens, HCT-8, 24 h): 29.9 ± 10.6 µM
IC50 (HCT-8; Homo sapiens, HCT-8, 48 h): 25.4 ± 8.25 µM
IC50 (HCT-8; Homo sapiens, HCT-8, 72 h): < 30 µM
IC50 (COLO205; COLO205, 72 h): < 30 µM
IC50 (COLO205; COLO205, 72 h, listed as Pterostilbene): 13.6 ± 6.1 µM
IC50 (COLO205; Homo sapiens, COLO 205, 24 h, COLO205, 24 h): 44.4 ± 16.7 µM
IC50 (COLO205; Homo sapiens, COLO 205, 48 h, COLO205, 48 h): 24.5 ± 9.13 µM
SMILES: COc1cc(/C=C/c2ccc(O)cc2)cc(OC)c1 [PTE, 3,5-dimethoxy-4′-hydroxy-trans-stilbene]
IC50 (CL187; CL187, 72 h): < 30 µM
IC50 (CL187; CL187, 72 h, listed as Pterostilbene): 14.4 ± 2.93 µM
IC50 (CL187; Homo sapiens, 24 h, CL187, 24 h): 24.2 ± 11.6 µM
IC50 (CL187; Homo sapiens, 48 h, CL187, 48 h): 13.8 ± 4.7 µM
Top1 mRNA expression (Top1 mRNA; Tdp1-over CL187 cells): suppressed, but there was no significant difference
Top1 mRNA expression (Top1 mRNA; siRNA-Tdp1 CL187 cells): significantly down-regulated
Top1 mRNA expression (Top1 mRNA; wild-type CL187 cells): significantly inhibited
IC50 (siRNA-Tdp1 CL187 cells; Homo sapiens, 24 h, siRNA-Tdp1 CL187, 24 h): 74.2 ± 21.8 µM
IC50 (siRNA-Tdp1 CL187 cells; Homo sapiens, 48 h, siRNA-Tdp1 CL187, 48 h): 24.8 ± 4.62 µM
IC50 (siRNA-Tdp1 CL187 cells; Homo sapiens, 72 h, siRNA-Tdp1 CL187, 72 h): 18.4 ± 3.78 µM
IC50 (siRNA-Tdp1 CL187 cells; siRNA-Tdp1 CL187, 72 h): ~20 µM
concentration with the same inhibitory effect on intracellular Top1 enzyme activity (Top1 in CL187 cells; cell extracts + SC DNA): 20 µM
Top1 enzyme activity in mitochondria (Top1 in CL187 cells; CPT at 50 μM): significantly inhibited
Tdp1 protein content (Tdp1; Tdp1-over CL187 cells): reduced in dese-dependent manner
Tdp1 protein content (Tdp1; siRNA-Top1 CL187 cells): reduced in a dose-dependent manner
Tdp1 protein content (Tdp1; wild-type CL187 cells): decreased in PTE treatment group, but neither in dese-dependent and significant manner
